Source: PMC8539420, “Discovery of a Potent and Selective JNK3 Inhibitor with Neuroprotective Effect Against Amyloid β-Induced Neurotoxicity in Primary Rat Neurons” (International Journal of Molecular Sciences, 2021)

Assays:
GSK3β = target: T1, GSK3β (Homo sapiens, UniProt P49841); assay: Kinase HotSpot assay, GSK3β; type: biochemical
T1 construct: purchased Reaction Biology Corp

caspase-3 = assay: Western blot of amyloid-β-induced caspase-3 activation (cleavage) in neurons; type: cell-based, rat; details: pre-treated 90 minutes, 10 μM amyloid-β1-42 24 hours
From the text: (§1) To establish whether the derived selective JNK3 inhibitor actually has the ability to protect neurons from amyloid β-induced neuronal cell death, which is known as the pathogenesis of Alzheimer’s disease, we performed cytotoxicity experiments using Aβ 42, which is known as the most toxic fragment of the amyloid protein. The amyloid-β is known to mainly cause apoptosis during cell death, so it was confirmed whether the derived selective JNK3 inhibitors affect the activation (cleavage) of caspase-3, which are apoptosis-related signaling substances. […] This means that selective JNK3 inhibitors can inhibit apoptosis signaling by amyloid-β in neurons, thereby inhibiting apoptosis. Additionally, we confirmed that JNK activation was induced by amyloid-β in neurons, and the derived selective JNK3 inhibitors could inhibit JNK activation induced by amyloid-β. […] Then, the experiments for JNK3 inhibitors’ effect on the viability of neurons were conducted for five 6-dihydroxy benzimidazoles (35a-35e) by comparing it with previously published resveratrol as a positive control. On the 5th day of rat primary cortical neuron differentiation, each compound was pre-treated for 90 min and then treated with 10 μM Aβ 42 (HIFP-treated) for 24 or 48 h, and cell viability was measured by MTT assay. […]

FGFR3 = target: T2, FGFR3 (Homo sapiens, UniProt P22607); assay: Kinase panel screening 1 μM; type: biochemical; details: read-out: enzymatic inhibition FGFR3
T2 construct: purchased Reaction Biology Corp. (Kinase HotSpot)

c-MET = target: T3, c-MET (Homo sapiens, UniProt P08581); assay: Kinase panel screening 1 μM; type: biochemical; details: read-out: enzymatic inhibition c-MET
T3 construct: purchased Reaction Biology Corp. (Kinase HotSpot)

SYK = target: T4, SYK (Homo sapiens, UniProt P43405); assay: Kinase panel screening 1 μM; type: biochemical; details: read-out: enzymatic inhibition SYK
T4 construct: purchased Reaction Biology Corp. (Kinase HotSpot)

c-Src = target: T5, c-Src (Homo sapiens, UniProt P12931); assay: Kinase panel screening 1 μM; type: biochemical; details: read-out: enzymatic inhibition c-Src
T5 construct: purchased Reaction Biology Corp. (Kinase HotSpot)

AXL (R499C) = target: T6, AXL (R499C) (Homo sapiens, UniProt P30530, R499C); assay: Kinase panel screening 1 μM; type: biochemical; details: read-out: enzymatic inhibition AXL (R499C)
T6 construct: purchased Reaction Biology Corp. (Kinase HotSpot)

PLK1 = target: T7, PLK1 (Homo sapiens, UniProt P53350); assay: Kinase panel screening 1 μM; type: biochemical; details: read-out: enzymatic inhibition PLK1
T7 construct: purchased Reaction Biology Corp. (Kinase HotSpot)

JNK1 = target: T8, JNK1 (Homo sapiens, UniProt P45983); assay: Kinase HotSpot assay, JNK1; type: biochemical
T8 construct: purchased Reaction Biology Corp

TRKC = target: T9, TRKC (Homo sapiens, UniProt Q16288); assay: Kinase panel screening 1 μM; type: biochemical; details: read-out: enzymatic inhibition TRKC
T9 construct: purchased Reaction Biology Corp. (Kinase HotSpot)

JAK3 = target: T10, JAK3 (Homo sapiens, UniProt P52333); assay: Kinase panel screening 1 μM; type: biochemical; details: read-out: enzymatic inhibition JAK3
T10 construct: purchased Reaction Biology Corp. (Kinase HotSpot)

RON/MST1R = target: T11, RON/MST1R (Homo sapiens, UniProt Q04912); assay: Kinase panel screening 1 μM; type: biochemical; details: read-out: enzymatic inhibition RON/MST1R
T11 construct: purchased Reaction Biology Corp. (Kinase HotSpot)

IGF1R = target: T12, IGF1R (Homo sapiens, UniProt P08069); assay: Kinase panel screening 1 μM; type: biochemical; details: read-out: enzymatic inhibition IGF1R
T12 construct: purchased Reaction Biology Corp. (Kinase HotSpot)

c-MER = target: T13, c-MER (Homo sapiens, UniProt Q12866); assay: Kinase panel screening 1 μM; type: biochemical; details: read-out: enzymatic inhibition c-MER
T13 construct: purchased Reaction Biology Corp. (Kinase HotSpot)

TYRO3/SKY = target: T14, TYRO3/SKY (Homo sapiens, UniProt Q06418); assay: Kinase panel screening 1 μM; type: biochemical; details: read-out: enzymatic inhibition TYRO3/SKY
T14 construct: purchased Reaction Biology Corp. (Kinase HotSpot)

AXL = target: T15, AXL (Homo sapiens, UniProt P30530); assay: Kinase panel screening 1 μM; type: biochemical; details: read-out: enzymatic inhibition AXL
T15 construct: purchased Reaction Biology Corp. (Kinase HotSpot)

c-jun = assay: Amyloid-β-induced JNK activation (c-jun phosphorylation) in neurons; type: cell-based; details: rat primary cortical neurons
From the text: as §1

JNK2 = target: T16, JNK2 (Homo sapiens, UniProt P45984); assay: Kinase HotSpot assay, JNK2; type: biochemical
T16 construct: purchased Reaction Biology Corp

PKA = target: T17, PKA (Homo sapiens, UniProt P17612); assay: Kinase panel screening 1 μM; type: biochemical; details: read-out: enzymatic inhibition PKA
T17 construct: purchased Reaction Biology Corp. (Kinase HotSpot)

JNK3(h) = target: T18, JNK3(h) (Homo sapiens, UniProt P53779); assay: Kinase HotSpot radiometric assay, JNK3; type: biochemical
T18 construct: purchased Reaction Biology Corp

LCK = target: T19, LCK (Homo sapiens, UniProt P06239); assay: Kinase panel screening 1 μM; type: biochemical; details: read-out: enzymatic inhibition LCK
T19 construct: purchased Reaction Biology Corp. (Kinase HotSpot)

FYN = target: T20, FYN (Homo sapiens, UniProt P06241); assay: Kinase panel screening 1 μM; type: biochemical; details: read-out: enzymatic inhibition FYN
T20 construct: purchased Reaction Biology Corp. (Kinase HotSpot)

MEK1 = target: T21, MEK1 (Homo sapiens, UniProt Q02750); assay: Kinase panel screening 1 μM; type: biochemical; details: read-out: enzymatic inhibition MEK1
T21 construct: purchased Reaction Biology Corp. (Kinase HotSpot)
T21 sequence (Q02750 whole entry): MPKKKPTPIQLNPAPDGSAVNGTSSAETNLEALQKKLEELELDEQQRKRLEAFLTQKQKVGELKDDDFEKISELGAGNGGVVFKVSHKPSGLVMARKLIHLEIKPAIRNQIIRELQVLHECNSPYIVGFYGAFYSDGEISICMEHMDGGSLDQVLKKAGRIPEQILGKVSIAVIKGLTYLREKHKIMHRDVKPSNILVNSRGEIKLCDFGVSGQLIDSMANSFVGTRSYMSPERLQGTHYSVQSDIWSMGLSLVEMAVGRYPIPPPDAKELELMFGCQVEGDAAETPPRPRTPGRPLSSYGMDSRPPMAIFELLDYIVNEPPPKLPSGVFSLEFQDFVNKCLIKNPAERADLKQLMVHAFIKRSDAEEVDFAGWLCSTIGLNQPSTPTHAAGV

T8 sequence (P45983 whole entry): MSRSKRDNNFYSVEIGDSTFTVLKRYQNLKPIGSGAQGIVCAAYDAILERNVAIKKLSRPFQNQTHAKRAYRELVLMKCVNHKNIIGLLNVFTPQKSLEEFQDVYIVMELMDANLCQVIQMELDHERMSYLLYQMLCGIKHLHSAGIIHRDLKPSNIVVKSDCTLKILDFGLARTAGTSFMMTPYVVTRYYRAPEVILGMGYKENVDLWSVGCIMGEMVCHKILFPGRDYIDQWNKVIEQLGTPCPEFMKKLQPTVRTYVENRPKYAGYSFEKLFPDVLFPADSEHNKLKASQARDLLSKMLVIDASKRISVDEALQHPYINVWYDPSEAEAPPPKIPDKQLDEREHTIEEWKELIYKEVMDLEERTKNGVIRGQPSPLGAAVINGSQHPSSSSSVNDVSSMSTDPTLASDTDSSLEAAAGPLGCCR
T1 sequence (P49841 whole entry): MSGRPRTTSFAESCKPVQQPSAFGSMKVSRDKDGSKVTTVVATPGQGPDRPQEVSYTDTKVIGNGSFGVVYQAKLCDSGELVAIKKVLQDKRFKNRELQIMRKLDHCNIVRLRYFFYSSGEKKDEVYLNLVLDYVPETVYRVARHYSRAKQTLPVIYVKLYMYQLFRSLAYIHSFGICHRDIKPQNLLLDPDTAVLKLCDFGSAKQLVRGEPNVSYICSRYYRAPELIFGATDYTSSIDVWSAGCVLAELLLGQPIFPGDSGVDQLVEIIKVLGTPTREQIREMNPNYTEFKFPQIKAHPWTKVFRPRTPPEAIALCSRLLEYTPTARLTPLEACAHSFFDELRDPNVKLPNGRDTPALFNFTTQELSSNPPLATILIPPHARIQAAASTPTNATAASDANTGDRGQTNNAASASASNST
T18 sequence (P53779 whole entry): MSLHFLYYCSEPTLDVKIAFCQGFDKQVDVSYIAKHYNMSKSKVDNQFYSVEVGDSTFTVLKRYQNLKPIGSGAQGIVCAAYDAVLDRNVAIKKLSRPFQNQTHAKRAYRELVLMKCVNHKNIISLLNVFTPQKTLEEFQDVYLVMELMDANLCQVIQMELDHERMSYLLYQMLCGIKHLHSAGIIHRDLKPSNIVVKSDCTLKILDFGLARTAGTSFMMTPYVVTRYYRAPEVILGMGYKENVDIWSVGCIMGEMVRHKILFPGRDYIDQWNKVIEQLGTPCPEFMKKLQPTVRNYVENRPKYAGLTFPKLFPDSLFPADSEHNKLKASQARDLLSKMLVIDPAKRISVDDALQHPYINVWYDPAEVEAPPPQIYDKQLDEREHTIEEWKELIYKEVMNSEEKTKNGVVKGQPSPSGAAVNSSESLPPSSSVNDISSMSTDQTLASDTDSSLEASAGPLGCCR
T16 sequence (P45984 whole entry): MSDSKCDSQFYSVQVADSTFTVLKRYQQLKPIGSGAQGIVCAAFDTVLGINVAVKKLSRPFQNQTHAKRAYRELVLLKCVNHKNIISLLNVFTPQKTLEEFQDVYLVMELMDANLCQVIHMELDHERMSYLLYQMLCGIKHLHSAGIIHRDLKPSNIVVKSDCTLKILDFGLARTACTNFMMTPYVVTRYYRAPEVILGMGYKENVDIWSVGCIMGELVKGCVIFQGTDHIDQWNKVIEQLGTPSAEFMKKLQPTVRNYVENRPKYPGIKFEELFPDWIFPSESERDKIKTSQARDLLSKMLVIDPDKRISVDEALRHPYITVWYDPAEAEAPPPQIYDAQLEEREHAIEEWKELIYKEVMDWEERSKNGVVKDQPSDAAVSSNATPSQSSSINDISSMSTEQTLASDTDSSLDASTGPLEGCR
T2 sequence (P22607 23-806): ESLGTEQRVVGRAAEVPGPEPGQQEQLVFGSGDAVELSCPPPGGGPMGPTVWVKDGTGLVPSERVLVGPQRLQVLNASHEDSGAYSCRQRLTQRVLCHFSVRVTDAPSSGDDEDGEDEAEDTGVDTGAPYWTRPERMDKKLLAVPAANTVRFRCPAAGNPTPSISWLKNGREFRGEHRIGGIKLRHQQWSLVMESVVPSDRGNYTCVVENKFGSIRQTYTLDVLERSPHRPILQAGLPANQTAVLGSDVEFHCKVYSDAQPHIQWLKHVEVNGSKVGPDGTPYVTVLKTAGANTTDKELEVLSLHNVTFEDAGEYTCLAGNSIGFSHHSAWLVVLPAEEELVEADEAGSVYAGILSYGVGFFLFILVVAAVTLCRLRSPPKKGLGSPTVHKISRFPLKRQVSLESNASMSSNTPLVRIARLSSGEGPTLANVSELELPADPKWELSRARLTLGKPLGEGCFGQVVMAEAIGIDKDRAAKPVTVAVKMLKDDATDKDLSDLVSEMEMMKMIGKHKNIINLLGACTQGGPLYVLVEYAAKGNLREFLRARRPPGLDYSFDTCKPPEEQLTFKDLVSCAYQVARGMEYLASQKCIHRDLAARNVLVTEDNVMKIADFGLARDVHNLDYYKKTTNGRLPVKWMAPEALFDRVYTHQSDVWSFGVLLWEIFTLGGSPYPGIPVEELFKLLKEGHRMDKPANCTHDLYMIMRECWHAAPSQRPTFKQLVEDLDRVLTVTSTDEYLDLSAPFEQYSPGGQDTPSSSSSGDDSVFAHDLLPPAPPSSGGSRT
T14 sequence (Q06418 41-890): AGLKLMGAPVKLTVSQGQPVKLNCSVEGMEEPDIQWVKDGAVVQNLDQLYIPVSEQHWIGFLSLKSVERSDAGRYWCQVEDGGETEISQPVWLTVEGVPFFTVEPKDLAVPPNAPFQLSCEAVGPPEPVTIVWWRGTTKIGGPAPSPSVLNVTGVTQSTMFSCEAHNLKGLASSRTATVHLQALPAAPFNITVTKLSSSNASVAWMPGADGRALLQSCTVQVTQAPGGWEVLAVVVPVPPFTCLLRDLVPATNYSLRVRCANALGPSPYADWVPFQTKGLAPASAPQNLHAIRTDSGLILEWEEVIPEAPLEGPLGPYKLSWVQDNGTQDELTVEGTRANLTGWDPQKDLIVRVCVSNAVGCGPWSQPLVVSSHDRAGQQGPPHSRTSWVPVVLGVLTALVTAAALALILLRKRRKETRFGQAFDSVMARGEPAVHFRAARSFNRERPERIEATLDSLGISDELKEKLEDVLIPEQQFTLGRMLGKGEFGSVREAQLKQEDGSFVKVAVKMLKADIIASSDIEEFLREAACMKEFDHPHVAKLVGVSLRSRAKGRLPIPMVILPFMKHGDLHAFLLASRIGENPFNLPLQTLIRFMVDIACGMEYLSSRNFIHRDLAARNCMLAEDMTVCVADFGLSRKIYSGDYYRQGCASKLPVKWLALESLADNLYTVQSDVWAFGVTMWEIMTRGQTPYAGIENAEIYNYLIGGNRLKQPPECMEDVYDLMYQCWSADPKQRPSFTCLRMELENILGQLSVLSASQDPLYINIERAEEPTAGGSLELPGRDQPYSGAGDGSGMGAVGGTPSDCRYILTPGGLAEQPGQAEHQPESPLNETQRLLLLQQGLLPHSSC
T5 sequence (P12931 whole entry): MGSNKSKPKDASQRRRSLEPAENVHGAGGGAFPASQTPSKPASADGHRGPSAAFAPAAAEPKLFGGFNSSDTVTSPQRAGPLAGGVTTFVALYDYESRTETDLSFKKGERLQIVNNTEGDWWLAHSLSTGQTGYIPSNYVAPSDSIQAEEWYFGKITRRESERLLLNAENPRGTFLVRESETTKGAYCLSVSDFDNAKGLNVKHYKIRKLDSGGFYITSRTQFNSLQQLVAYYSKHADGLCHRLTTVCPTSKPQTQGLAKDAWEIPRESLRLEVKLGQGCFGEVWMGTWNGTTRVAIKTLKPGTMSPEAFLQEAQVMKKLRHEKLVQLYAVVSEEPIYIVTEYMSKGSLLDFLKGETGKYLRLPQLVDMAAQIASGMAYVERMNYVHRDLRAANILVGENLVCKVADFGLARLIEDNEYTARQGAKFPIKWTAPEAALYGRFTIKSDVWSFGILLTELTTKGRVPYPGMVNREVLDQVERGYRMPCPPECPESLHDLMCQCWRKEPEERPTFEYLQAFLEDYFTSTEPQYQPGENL
T19 sequence (P06239 whole entry): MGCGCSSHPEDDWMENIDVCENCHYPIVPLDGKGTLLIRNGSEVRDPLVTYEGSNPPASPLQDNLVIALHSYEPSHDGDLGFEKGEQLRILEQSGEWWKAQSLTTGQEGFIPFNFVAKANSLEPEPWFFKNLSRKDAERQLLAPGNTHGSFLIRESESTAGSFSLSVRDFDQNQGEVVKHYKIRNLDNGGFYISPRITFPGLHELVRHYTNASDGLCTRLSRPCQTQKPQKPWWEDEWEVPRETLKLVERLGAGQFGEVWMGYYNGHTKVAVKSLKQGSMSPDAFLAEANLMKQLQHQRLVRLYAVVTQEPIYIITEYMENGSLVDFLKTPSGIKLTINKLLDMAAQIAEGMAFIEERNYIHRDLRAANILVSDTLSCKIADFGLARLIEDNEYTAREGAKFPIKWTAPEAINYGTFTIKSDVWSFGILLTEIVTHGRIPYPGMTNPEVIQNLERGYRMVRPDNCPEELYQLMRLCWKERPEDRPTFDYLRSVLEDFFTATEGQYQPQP

O=C(C1CC1)N1CCC[C@H](Nc2nccc(-n3c(-c4ccc5c(c4)OCCO5)nc4cc(O)c(O)cc43)n2)C1 [35b, (S)-Cyclopropyl(3-((4-(2-(2,3-dihydrobenzo[b][1,4]dioxin-6-yl)-5,6-dihydroxy-1H-benzo[d]imidazol-1-yl)pyrimidin-2-yl)amino)piperidin-1-yl)methanone]
IC50 (GSK3β): 5850 nM
inhibition at 1 µM (GSK3β; 1 μM, read-out: enzymatic inhibition GSK3b): 85.5%
Selectivity/JNK3 (GSK3β; GSK3β IC50 in comparison with JNK3): >600 fold
activation (cleavage) of caspase-3 by amyloid-β (caspase-3): inhibited the activation of caspase-3
inhibition at 1 µM (FGFR3): 25.9%
inhibition at 1 µM (c-MET): 0%
inhibition at 1 µM (SYK): 1.73%
inhibition at 1 µM (c-Src): 19.3%
inhibition at 1 µM (AXL (R499C)): 0.64%
inhibition at 1 µM (PLK1): 0%
IC50 (JNK1): > 10000 nM
inhibition at 1 µM (JNK1; 1 μM, read-out: enzymatic inhibition JNK1): 9%
selectivity over JNK1 (JNK1; JNK3 versus JNK1): > 1000 fold
inhibition at 1 µM (TRKC): 8.78%
inhibition at 1 µM (JAK3): 10.7%
inhibition at 1 µM (RON/MST1R): 0%
inhibition at 1 µM (IGF1R): 13.4%
inhibition at 1 µM (c-MER): 2.29%
inhibition at 1 µM (TYRO3/SKY): 0%
inhibition at 1 µM (AXL): 6.37%
phosphorylation of c-jun induced by amyloid-β (c-jun): inhibit phosphorylation of c-jun
IC50 (JNK2): 898 nM
inhibition at 1 µM (JNK2; 1 μM, read-out: enzymatic inhibition JNK2): 38%
inhibition at 1 µM (PKA): 0%
inhibition at 1 µM (JNK3(h); 1 μM, read-out: enzymatic inhibition JNK3): 90%
IC50 (JNK3(h); ATP 10 μM, substrate ATF2 5 μM, read-out: JNK3 inhibitory activity IC50): 9.7 nM
inhibition at 1 µM (LCK): 7.63%
inhibition at 1 µM (FYN): 18.3%
inhibition at 1 µM (MEK1): 0%
